Test results taken from patent US8877741B2, “Pyrrolidine derivatives, pharmaceutical compositions and uses thereof” (Boehringer Ingelheim International GmbH, priority 2013, dated 2014).

Target: human ACC2 (Homo sapiens (Human), UniProt O00763)
Assay: ACC2 assay, spectrophotometric 384 well assay (NADH-linked kinetic method)
Format: biochemical
Conditions: human ACC2 construct lacking the 128 N-terminal amino acids; coupled lactate dehydrogenase/pyruvate kinase reaction, 340 nm, 25° C.
Procedure: Spectrophotometric 384 Well Assay
Malonyl CoA formation by acetyl CoA carboxylases is stoichometrically linked to the consumption of ATP. ACC2 activity is measured in a NADH-linked kinetic method measuring ADP generated during the ACC reaction using a coupled lactate dehydrogenase/pyruvate kinase reaction.
For biological testing, a human ACC2 construct which lacks the 128 amino acids at the N-terminus for increased solubility (nt 385-6966 in Genbank entry AJ575592) is cloned. The protein is then expressed in insect cells using a baculoviral expression system. Protein purification is performed by anion exchange.
All compounds are dissolved in dimethyl sulfoxide (DMSO) to a concentration of 10 mM.
The enzymatic reaction is then started by addition of a mixture of NADH, acetyl Coenzyme A (both 2000 μM f.c.) and ATP (500 uM f.c.). The decrease of the optical density (slope S) is then determined at 25° C. at a wavelength of 340 nm over 15 minutes in a spectrophotometric reader.
Each assay microtiter plate contains wells with vehicle instead of compound as controls for the non-inhibited enzyme (100% CTL; ‘HIGH’) and wells without acetyl-CoA as controls for non-specific NADH degradation (0% CTL; ‘LOW’).
The slope S is used for calculation of % CTL=(S(compound)−S(‘LOW’))/(S(‘HIGH’)−S(‘LOW’))*100.
For IC50 value determination, the sample slope in the presence of the test compound after subtraction of the low controls (S(compound)−S(‘LOW’)) are used.
An IC50 value is derived from the compound slopes at different dosages after subtraction of the low controls (S(compound)−S(‘LOW’)) by non-linear regression curve fitting (equation y=(A+((B−A)/(1+((C/x)^D))))).

Sequence of human ACC2 (O00763 129-2458): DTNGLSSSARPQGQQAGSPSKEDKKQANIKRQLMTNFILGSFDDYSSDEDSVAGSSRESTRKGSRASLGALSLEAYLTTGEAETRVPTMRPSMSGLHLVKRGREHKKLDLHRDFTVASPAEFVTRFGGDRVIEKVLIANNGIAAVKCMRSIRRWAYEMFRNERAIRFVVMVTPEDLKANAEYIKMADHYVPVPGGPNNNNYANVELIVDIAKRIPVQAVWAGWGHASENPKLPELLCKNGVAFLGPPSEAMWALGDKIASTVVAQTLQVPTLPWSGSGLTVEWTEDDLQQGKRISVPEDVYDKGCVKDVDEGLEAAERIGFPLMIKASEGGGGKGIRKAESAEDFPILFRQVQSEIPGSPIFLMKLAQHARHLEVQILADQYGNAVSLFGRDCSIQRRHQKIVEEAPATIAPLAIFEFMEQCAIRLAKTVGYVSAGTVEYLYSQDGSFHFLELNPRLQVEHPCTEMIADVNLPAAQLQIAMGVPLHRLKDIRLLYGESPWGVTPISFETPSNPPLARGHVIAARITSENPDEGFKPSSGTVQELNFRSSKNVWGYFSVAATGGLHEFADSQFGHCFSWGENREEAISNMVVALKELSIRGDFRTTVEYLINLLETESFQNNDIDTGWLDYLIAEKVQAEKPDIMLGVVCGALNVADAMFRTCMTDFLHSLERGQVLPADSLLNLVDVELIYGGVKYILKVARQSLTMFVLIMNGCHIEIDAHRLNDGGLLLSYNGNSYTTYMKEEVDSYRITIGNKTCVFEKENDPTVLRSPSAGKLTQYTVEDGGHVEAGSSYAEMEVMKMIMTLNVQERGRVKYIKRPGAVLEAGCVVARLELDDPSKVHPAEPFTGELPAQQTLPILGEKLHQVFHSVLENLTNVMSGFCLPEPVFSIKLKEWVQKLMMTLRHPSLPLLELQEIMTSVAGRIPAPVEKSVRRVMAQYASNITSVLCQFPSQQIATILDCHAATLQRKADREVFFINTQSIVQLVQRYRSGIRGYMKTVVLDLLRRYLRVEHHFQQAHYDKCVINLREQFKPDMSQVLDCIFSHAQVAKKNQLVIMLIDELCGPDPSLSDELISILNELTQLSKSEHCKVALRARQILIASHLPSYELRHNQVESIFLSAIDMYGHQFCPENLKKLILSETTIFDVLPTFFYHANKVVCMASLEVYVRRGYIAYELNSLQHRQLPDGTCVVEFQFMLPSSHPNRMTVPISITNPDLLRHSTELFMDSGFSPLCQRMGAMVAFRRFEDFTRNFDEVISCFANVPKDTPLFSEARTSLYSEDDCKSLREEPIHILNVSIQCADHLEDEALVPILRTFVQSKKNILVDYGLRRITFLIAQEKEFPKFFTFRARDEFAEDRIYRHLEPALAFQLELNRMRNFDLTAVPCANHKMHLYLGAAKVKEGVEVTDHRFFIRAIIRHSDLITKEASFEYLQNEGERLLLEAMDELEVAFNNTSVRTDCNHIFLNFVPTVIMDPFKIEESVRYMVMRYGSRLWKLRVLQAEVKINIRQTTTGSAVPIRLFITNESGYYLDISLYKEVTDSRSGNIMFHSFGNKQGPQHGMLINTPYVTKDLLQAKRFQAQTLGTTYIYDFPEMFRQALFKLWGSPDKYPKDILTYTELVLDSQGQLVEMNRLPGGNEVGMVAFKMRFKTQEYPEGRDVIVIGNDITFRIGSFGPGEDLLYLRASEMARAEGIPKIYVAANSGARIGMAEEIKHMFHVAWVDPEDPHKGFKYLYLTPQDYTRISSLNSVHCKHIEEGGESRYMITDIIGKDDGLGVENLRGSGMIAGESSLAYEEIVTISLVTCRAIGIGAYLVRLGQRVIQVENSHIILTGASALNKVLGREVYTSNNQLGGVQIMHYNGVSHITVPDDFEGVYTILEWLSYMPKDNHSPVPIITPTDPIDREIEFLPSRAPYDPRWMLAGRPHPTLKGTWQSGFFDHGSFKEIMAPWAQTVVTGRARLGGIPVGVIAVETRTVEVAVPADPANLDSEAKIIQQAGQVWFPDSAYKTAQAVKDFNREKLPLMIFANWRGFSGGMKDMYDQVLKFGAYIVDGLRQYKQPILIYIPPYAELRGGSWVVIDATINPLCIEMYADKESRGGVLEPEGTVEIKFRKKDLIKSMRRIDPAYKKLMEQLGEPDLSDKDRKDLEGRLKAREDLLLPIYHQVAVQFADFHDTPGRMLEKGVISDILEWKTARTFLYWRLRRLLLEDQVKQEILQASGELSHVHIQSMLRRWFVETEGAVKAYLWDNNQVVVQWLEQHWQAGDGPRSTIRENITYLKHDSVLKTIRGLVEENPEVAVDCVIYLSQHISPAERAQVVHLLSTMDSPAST

Row | SMILES | IC50 [nM]
1 | CC(=O)N[C@@H](C)c1ccc(O[C@@H]2CCN(c3ccc(OCC4CC4)cn3)C2)cc1 [Example 1.96] | 114
2 | C[C@H](NC(=O)c1cnsc1)c1ccc(OC2CCN(c3cccc(C(F)(F)F)n3)C2)cc1 (stereo partly shown) [Example 2.45] | 100
3 | CC(C)Oc1cc(N2CCC(Oc3ccc([C@H](C)NC(=O)C(C)F)cc3)C2)ccn1 (stereo partly shown) [Example 2.13] | 798
4 | CC(=O)N[C@@H](C)c1ccc(O[C@@H]2CCN(c3cccc(N4CCC4)n3)C2)cc1 [Example 10.11] | 209
5 | CC(=O)N[C@@H](C)c1ccc(OC2CCN(c3ccc(OCCC4CC4)cn3)C2)cc1 (stereo partly shown) [Example 1.31] | 139
6 | COc1c(N2CC[C@@H](Oc3ccc([C@H](C)NC(C)=O)cc3)C2)ccnc1OCC(F)F [Example 14.1, N—((S)-1-(4-((R)-1-(2-(2,2-Difluoroethoxy)-3-methoxypyridin-4-yl)pyrrolidin-3-yloxy)phenyl)ethyl)acetamide] | 58
7 | CC(=O)N[C@@H](C)c1ccc(OC2CCN(c3ncc(OCC4CC4(F)F)cc3Cl)C2)cc1 (stereo partly shown) [Example 1.77] | 29
8 | C[C@H](NC(=O)C(F)F)c1ccc(OC2CCN(c3ccnc(OCC4CC4)c3)C2)cc1 (stereo partly shown) [Example 2.81] | 35
9 | CC(=O)N[C@@H](C)c1ccc(O[C@@H]2CCN(c3ccnc(OCC(C)(C)O)c3)C2)cc1 [Example 9.32] | 305
10 | CC(=O)N[C@@H](C)c1ccc(O[C@@H]2CCN(c3ccnc(OCC(C)(F)F)c3Cl)C2)cc1 [Example 9.77] | 59
11 | CC(=O)N[C@@H](C)c1ccc(O[C@@H]2CCN(c3ccnc(OCC4CC4)c3Cl)C2)cc1 [Example 9.82] | 35
12 | C[C@H](NC(=O)CO)c1ccc(OC2CCN(c3ccnc(OCC4CC4)c3)C2)cc1 (stereo partly shown) [Example 2.72] | 130
13 | CC(=O)N[C@@H](C)c1ccc(O[C@@H]2CCN(c3ccnc(OCC(F)F)c3Cl)C2)cc1 [Example 9.72] | 79
14 | C[C@H](NC(=O)N(C)C)c1ccc(OC2CCN(c3ccc(F)c(C(F)(F)F)n3)C2)cc1 (stereo partly shown) [Example 1.58] | 55
15 | CC(=O)N[C@@H](C)c1ccc(O[C@@H]2CCN(c3ccnc(OC(C)C)c3Cl)C2)cc1 [Example 9.80] | 138
16 | C[C@H](NC(=O)C1CC1)c1ccc(OC2CCN(c3cccc(C(F)(F)F)n3)C2)cc1 (stereo partly shown) [Example 2.49] | 560
17 | CCOc1cnc(N2CCC(Oc3ccc([C@H](C)NC(C)=O)cc3)C2)c(Cl)c1 (stereo partly shown) [Example 1.78] | 198
18 | COc1c(N2CC[C@@H](Oc3ccc([C@H](C)NC(C)=O)cc3)C2)ccnc1OCCC1CC1 [Example 1.139] | 37
19 | CC(=O)N[C@@H](C)c1ccc(O[C@@H]2CCN(c3ccnc(OCC4CCOC4)c3)C2)cc1 (stereo partly shown) [Example 9.26] | 125
20 | CC(=O)N[C@@H](C)c1ccc(O[C@@H]2CCN(c3ccnc(N4CCC5(CC5)C4)c3F)C2)cc1 [Example 1.104] | 24
21 | C[C@H](NC(=O)C1CC1)c1ccc(O[C@@H]2CCN(c3ccnc(OC4CCC4)c3)C2)cc1 [Example 9.41] | 95
22 | CC(=O)N[C@@H](C)c1ccc(O[C@@H]2CCN(c3nc(N4CCCC4)c(F)cc3F)C2)cc1 [Example 10.8] | 594

Row | SMILES | IC50 [nM]
23 | CCC(=O)N[C@@H](C)c1ccc(OC2CCN(c3ccc(OCC4CC4(F)F)cn3)C2)cc1 (stereo partly shown) [Example 2.33] | 55
24 | CC(=O)N[C@@H](C)c1ccc(OC2CCN(c3cnc(OCC4CC4(F)F)cc3C)C2)cc1 (stereo partly shown) [Example 1.40] | 775
25 | CC(O)C(=O)N[C@@H](C)c1ccc(OC2CCN(c3cccc(C(F)(F)F)n3)C2)cc1 (stereo partly drawn) [Example 6.1, 2-Hydroxy-N—((S)-1-(4-((R)-1-(6-(trifluoromethyl)pyridin-2-yl)pyrrolidin-3-yloxy)phenyl)ethyl)propanamide] | 428
26 | CC(=O)N[C@@H](C)c1ccc(O[C@@H]2CCN(c3ccnc(OCC4CC4(F)F)c3F)C2)cc1 (stereo partly shown) [Example 9.62] | 44
27 | C[C@H](NC(=O)c1cn[nH]c1)c1ccc(OC2CCN(c3ccc(OCC4CC4(F)F)cn3)C2)cc1 (stereo partly shown) [Example 2.34] | 69
28 | COc1cc(OCC2CC2)cnc1N1CCC(Oc2ccc([C@H](C)NC(C)=O)cc2)C1 (stereo partly shown) [Example 1.80] | 484
29 | COC1CN(c2nccc(N3CC[C@@H](Oc4ccc([C@H](C)NC(C)=O)cc4)C3)c2F)C1 [Example 1.109] | 155
30 | CC(=O)N[C@@H](C)c1ccc(O[C@@H]2CCN(c3ccnc(O[C@@H]4CCC[C@H]4O)c3)C2)cc1 [Example 9.47] | 745
31 | C[C@H](NC(=O)c1cncs1)c1ccc(OC2CCN(c3ccc(OCC4CC4(F)F)cn3)C2)cc1 (stereo partly shown) [Example 2.59] | 55
32 | CC(=O)N[C@@H](C)c1ccc(O[C@@H]2CCN(c3ccnc(OCC(F)F)c3C)C2)cc1 [Example 9.54] | 115
33 | CCCOc1ccc(N2CCC(Oc3ccc([C@H](C)NC(C)=O)cc3)C2)c(C#N)n1 (stereo partly shown) [Example 1.13] | 345
34 | C[C@H](NC(=O)c1cncs1)c1ccc(O[C@@H]2CCN(c3ccnc(OCC4CC4)c3)C2)cc1 [Example 9.63] | 55
35 | CCOc1cccc(N2CCC(Oc3ccc([C@H](C)NC(C)=O)cc3)C2)n1 (stereo partly shown) [Example 1.62] | 802
36 | CCOc1cnc(N2CCC(Oc3ccc([C@H](C)NC(C)=O)cc3)C2)c(C)c1 (stereo partly shown) [Example 1.52] | 474
37 | CCNC(=O)N[C@@H](C)c1ccc(OC2CCN(c3ccnc(OCC(F)F)c3)C2)cc1 (stereo partly shown) [Example 3.16] | 313
38 | CC(=O)N[C@@H](C)c1ccc(O[C@@H]2CCN(c3ncc(C(F)(F)F)cc3F)C2)cc1 [Example 8.3] | 755
39 | CC(=O)N[C@@H](C)c1ccc(O[C@@H]2CCN(c3nccc(N(C)CC4CC4)c3F)C2)cc1 [Example 1.100] | 385
40 | CCCOc1cc(N2CCC(Oc3ccc([C@H](C)NC(C)=O)cc3)C2)c(C)cn1 (stereo partly shown) [Example 1.90] | 379
41 | CC(=O)N[C@@H](C)c1ccc(O[C@@H]2CCN(c3ccnc(N4CCCC4)c3C)C2)cc1 [Example 1.125] | 402
42 | CC(C)Oc1cc(N2CCC(Oc3ccc([C@H](C)NC(=O)C4(C)CC4)cc3)C2)ccn1 (stereo partly shown) [Example 2.21] | 389
43 | CCCOc1cc(C)c(N2CCC(Oc3ccc([C@H](C)NC(C)=O)cc3)C2)cn1 (stereo partly shown) [Example 1.51] | 401
44 | C[C@H](NC(=O)c1ccnc(F)c1)c1ccc(OC2CCN(c3cccc(C(F)(F)F)n3)C2)cc1 (stereo partly shown) [Example 2.54] | 455

Row | SMILES | IC50 [nM]
45 | CC(=O)N[C@@H](C)c1ccc(O[C@@H]2CCN(c3ccnc(OCC4CC4)c3F)C2)cc1 [Example 9.51] | 42
46 | CO[C@@H](C)COc1cc(N2CC[C@@H](Oc3ccc([C@H](C)NC(C)=O)cc3)C2)ccn1 [Example 9.44] | 639
47 | C[C@H](NC(=O)c1cnn(C)c1)c1ccc(OC2CCN(c3ccnc(OCC(F)F)c3)C2)cc1 (stereo partly shown) [Example 2.102] | 136
48 | CC(=O)N[C@@H](C)c1ccc(OC2CCN(c3ccc(OC4CCC4)nc3)C2)cc1 (stereo partly shown) [Example 1.21] | 335
49 | CC(C)Oc1cc(N2CCC(Oc3ccc([C@H](C)NC(=O)c4ccns4)cc3)C2)ccn1 (stereo partly shown) [Example 2.6] | 145
50 | CC(=O)N[C@@H](C)c1ccc(O[C@@H]2CCN(c3ccnc(C(=O)N4CCc5c4ccc(F)c5F)c3)C2)cc1 [Example 8.5] | 530
51 | Cc1[nH]ncc1C(=O)N[C@@H](C)c1ccc(OC2CCN(c3ccnc(OCC4CC4)c3)C2)cc1 (stereo partly shown) [Example 2.84] | 169
52 | CC(=O)N[C@@H](C)c1ccc(O[C@@H]2CCN(c3ccnc(N(C)CC(F)(F)F)c3F)C2)cc1 [Example 1.112] | 68
53 | CC(=O)N[C@@H](C)c1ccc(O[C@@H]2CCN(c3cccc(N4CCCOCC4)n3)C2)cc1 [Example 10.40] | 528
54 | C[C@H](NC(=O)c1cncs1)c1ccc(OC2CCN(c3cccc(C(F)(F)F)n3)C2)cc1 (stereo partly shown) [Example 2.46] | 60
55 | CC(=O)N[C@@H](C)c1ccc(O[C@@H]2CCN(c3ccnc(NCC(C)(C)O)c3Cl)C2)cc1 [Example 10.51] | 65
56 | CC(=O)N[C@@H](C)c1ccc(O[C@@H]2CCN(c3cccc(N(C)C4CCCC4)n3)C2)cc1 [Example 10.29] | 170
57 | CCCNc1nccc(N2CC[C@@H](Oc3ccc([C@H](C)NC(C)=O)cc3)C2)c1F [Example 1.107] | 52
58 | C[C@H](NC(=O)c1cncs1)c1ccc(OC2CCN(c3ccnc(OCC(F)F)c3)C2)cc1 (stereo partly shown) [Example 2.101] | 76
59 | COc1c(N2CC[C@@H](Oc3ccc([C@H](C)NC(C)=O)cc3)C2)ccnc1OC(C)C [Example 1.150] | 69
60 | COC(=O)N[C@@H](C)c1ccc(OC2CCN(c3cccc(C(F)(F)F)n3)C2)cc1 (stereo partly shown) [Example 4.2] | 139
61 | CC(=O)N[C@@H](C)c1ccc(O[C@@H]2CCN(c3ccnc(NCC4(O)CCC4)c3Cl)C2)cc1 [Example 10.55] | 57
62 | CC(=O)N[C@@H](C)c1ccc(O[C@@H]2CCN(c3ccnc(OCC4CC4)c3C)C2)cc1 [Example 9.57] | 55
63 | Cc1ncoc1C(=O)N[C@@H](C)c1ccc(OC2CCN(c3cccc(C(F)(F)F)n3)C2)cc1 (stereo partly shown) [Example 2.39] | 610
64 | C[C@H](NC(=O)[C@@H](C)O)c1ccc(OC2CCN(c3ccnc(OCC4CC4)c3)C2)cc1 (stereo partly shown) [Example 2.68] | 265
